Biological target: T1, Recombinant human KIF18A (1-467 His-tagged) protein (Homo sapiens, UniProt Q8NI77)
T1 construct: Recombinant human KIF18A (1-467 His-tagged) protein; His; made in house
Experiment: KIF18A Enzyme Assay: microtubule-stimulated ATPase activity (ADP-Glo)
Assay type: biochemical
Settings: 30 nM KIF18A, 75 μM ATP
Summary of the method: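 ADP-Glo luminescence reports ADP produced by His-tagged human KIF18A motor domain (1-467, insect-cell expressed) with microtubules and ATP.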

T1 sequence (Q8NI77 1-467): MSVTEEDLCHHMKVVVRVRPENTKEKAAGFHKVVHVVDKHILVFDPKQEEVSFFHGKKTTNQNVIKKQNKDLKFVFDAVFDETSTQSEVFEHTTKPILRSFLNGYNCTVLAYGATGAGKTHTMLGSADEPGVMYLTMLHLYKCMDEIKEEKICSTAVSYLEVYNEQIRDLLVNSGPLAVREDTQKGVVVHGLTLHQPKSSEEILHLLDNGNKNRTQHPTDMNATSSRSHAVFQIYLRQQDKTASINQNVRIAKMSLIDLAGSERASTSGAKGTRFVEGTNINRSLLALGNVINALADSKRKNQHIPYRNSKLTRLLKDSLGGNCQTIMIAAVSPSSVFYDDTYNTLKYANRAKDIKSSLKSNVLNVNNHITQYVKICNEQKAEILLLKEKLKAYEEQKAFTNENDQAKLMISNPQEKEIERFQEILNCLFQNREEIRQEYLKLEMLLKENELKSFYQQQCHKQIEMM
T1 sequence (P02550 whole entry partner): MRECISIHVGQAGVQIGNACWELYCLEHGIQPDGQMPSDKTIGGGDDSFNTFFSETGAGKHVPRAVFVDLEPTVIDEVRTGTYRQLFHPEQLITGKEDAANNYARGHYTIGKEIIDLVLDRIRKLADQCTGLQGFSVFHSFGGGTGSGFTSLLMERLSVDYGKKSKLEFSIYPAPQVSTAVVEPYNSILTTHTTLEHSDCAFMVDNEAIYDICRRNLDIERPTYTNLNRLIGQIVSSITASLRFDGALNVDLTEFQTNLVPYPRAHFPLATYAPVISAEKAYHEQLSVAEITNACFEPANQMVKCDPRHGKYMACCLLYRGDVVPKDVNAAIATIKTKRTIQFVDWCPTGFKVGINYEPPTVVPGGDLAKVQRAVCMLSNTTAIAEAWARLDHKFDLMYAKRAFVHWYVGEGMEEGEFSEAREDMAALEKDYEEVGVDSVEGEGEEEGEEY
T1 sequence (P02554 whole entry partner): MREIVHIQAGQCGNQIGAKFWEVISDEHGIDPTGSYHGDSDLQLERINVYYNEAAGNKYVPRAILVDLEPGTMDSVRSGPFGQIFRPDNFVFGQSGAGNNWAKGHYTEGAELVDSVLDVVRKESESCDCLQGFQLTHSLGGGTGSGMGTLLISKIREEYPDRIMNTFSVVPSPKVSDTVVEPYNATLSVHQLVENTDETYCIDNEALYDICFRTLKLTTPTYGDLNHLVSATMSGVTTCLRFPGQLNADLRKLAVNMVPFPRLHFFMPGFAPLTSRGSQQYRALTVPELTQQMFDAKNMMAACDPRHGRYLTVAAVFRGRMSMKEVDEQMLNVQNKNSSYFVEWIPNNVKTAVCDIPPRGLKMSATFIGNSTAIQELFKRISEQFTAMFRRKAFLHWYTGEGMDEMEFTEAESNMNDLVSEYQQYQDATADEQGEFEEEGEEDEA

IC50	SMILES
577 nM	O=C(Nc1ccc(Br)c(C(=O)N2CCCC(F)(F)C2)c1)c1ccncc1N1CCC2(CC1)CC2 [Example 115-1, N-(4-bromo-3-(3,3-difluoropiperidine-1-carbonyl)phenyl)-3-(6-azaspiro[2.5]octan-6-yl)isonicotinamide]
735 nM	O=C(Nc1ccc(Cl)c(C(=O)N2CCCC(F)(F)C2)c1)c1ccncc1N1CCC2(CC1)CC2 [Example 115-2, N-(4-chloro-3-(3,3-difluoropiperidine-1-carbonyl)phenyl)-3-(6-azaspiro[2.5]octan-6-yl)isonicotinamide]
1670 nM	O=C(Nc1ccc(F)c(C(=O)N2CCCC(F)(F)C2)c1)c1ccncc1N1CCC2(CC1)CC2 [Example 115-3, N-(3-(3,3-difluoropiperidine-1-carbonyl)-4-fluorophenyl)-3-(6-azaspiro[2.5]octan-6-yl)isonicotinamide]
1540 nM	Cc1ccc(NC(=O)c2ccncc2N2CCC3(CC2)CC3)cc1C(=O)N1CCC(F)(F)CC1 [Example 115-4, N-(3-(4,4-difluoropiperidine-1-carbonyl)-4-methylphenyl)-3-(6-azaspiro[2.5]octan-6-yl)isonicotinamide]
1680 nM	O=C(Nc1cccc(C(=O)N2CCCC(F)(F)C2)c1)c1ccncc1N1CCC2(CC1)CC2 [Example 115-5, N-(3-(3,3-difluoropiperidine-1-carbonyl)phenyl)-3-(6-azaspiro[2.5]octan-6-yl)isonicotinamide]

Further lines, the compound ahead of its results:

SMILES	IC50
Cc1cncc(-c2cc(NC(=O)c3ccc(NC(C)(C)CO)nc3N3CCC4(CC3)CC4)ccc2C)c1 [Example 111-13, 6-((1-hydroxy-2-methylpropan-2-yl)amino)-N-(4-methyl-3-(5-methylpyridin-3-yl)phenyl)-2-(6-azaspiro[2.5]octan-6-yl)nicotinamide]	165 nM
CC(C)(C)NS(=O)(=O)c1cc(NC(=O)c2ccc(NC(C)(C)CO)nc2N2CCC3(CC2)CC3)cc(-c2ccco2)c1 [Example 112, N-(3-(N-(tert-butyl)sulfamoyl)-5-(furan-2-yl)phenyl)-6-((1-hydroxy-2-methylpropan-2-yl)amino)-2-(6-azaspiro[2.5]octan-6-yl)nicotinamide]	170 nM
CC(C)(C)NS(=O)(=O)c1cc(NC(=O)c2ccc(NC(C)(C)CO)nc2N2CCC3(CC2)CC3)cc(C2CC2)c1 [Example 112-2, N-(3-(N-(tert-butyl)sulfamoyl)-5-cyclopropylphenyl)-6-((1-hydroxy-2-methylpropan-2-yl)amino)-2-(6-azaspiro[2.5]octan-6-yl)nicotinamide]	633 nM
CC(C)(C)NS(=O)(=O)c1cc(NC(=O)c2ccc(NC(C)(C)CO)nc2N2CCC3(CC2)CC3)cc(-c2cccnc2)c1 [Example 112-3, N-(3-(N-(tert-butyl)sulfamoyl)-5-(pyridin-3-yl)phenyl)-6-((1-hydroxy-2-methylpropan-2-yl)amino)-2-(6-azaspiro[2.5]octan-6-yl)nicotinamide]	561 nM
CC(C)(C)NS(=O)(=O)c1cccc(NC(=O)c2ccc(CS(C)(=O)=O)nc2N2CCC3(CC2)CC3)c1 [Example 113, N-(3-(N-(tert-butyl)sulfamoyl)phenyl)-6-((methylsulfonyl)methyl)-2-(6-azaspiro[2.5]octan-6-yl)nicotinamide]	103 nM
CC(C)(C)NS(=O)(=O)c1cccc(NC(=O)c2ccncc2N2CCC3(CC2)CC3)c1 [Example 114, N-(3-(N-(tert-butyl)sulfamoyl)phenyl)-3-(6-azaspiro[2.5]octan-6-yl)isonicotinamide]	114 nM
O=C(Nc1cccc(S(=O)(=O)C2CCCC2)c1)c1ccncc1N1CCC2(CC1)CC2 [Example 114-1, N-(3-(cyclopentylsulfonyl)phenyl)-3-(6-azaspiro[2.5]octan-6-yl)isonicotinamide]	253 nM
O=C(Nc1cccc(S(=O)(=O)C2CCCC2)c1)c1ccncc1N1CCC2(CC1)CC2(F)F [Example 114-2, N-(3-(cyclopentylsulfonyl)phenyl)-3-(1,1-difluoro-6-azaspiro[2.5]octan-6-yl)isonicotinamide]	735 nM
Cc1ccc(NC(=O)c2ccncc2N2CCC3(CC2)CC3)cc1C(=O)N1CCCC(F)(F)C1 [Example 115, N-(3-(3,3-difluoropiperidine-1-carbonyl)-4-methylphenyl)-3-(6-azaspiro[2.5]octan-6-yl)isonicotinamide]	606 nM
